From patent US9765113B2, “Methods and agents for the treatment of cancer” (INTERK PEPTIDE THERAPEUTICS LIMITED, priority 2003, dated 2017)
Read-outs that look alike come from different tables or passages of the source. Ends that are not written are not given here.

Experiments:
HUVEC cells = test: Cell proliferation assay using MTT; assay type: cell-based, human
Protocol: The ability of the 10(4) peptide […] (SEQ ID No: 7) linked to the signal peptide […] (SEQ ID No: 1) to inhibit the proliferation of the above cell lines was assessed using the cell proliferation assay described in Example 2.1.

[1] = tested on: normal keratinocytes (KC); test: Annexin-V-FITC FACScan apoptosis analysis; conditions: FIG. 23
Protocol: (§1) The killing of HT29 cancer cells compared to normal keratinocytes, human umbilical vein epithelial cells (HUVECs) and skin fibroblasts by the peptide […] (IK2) (SEQ ID No: 16) was assessed. Briefly, cells were recovered by trypsinisation and resuspended into fresh culture medium. Cell viability was determined (0.4% Trypan Blue in phosphate buffered saline (PBS) 1:1 v/v), and 0.75×10^6 viable cells were passaged into a 25 cm^2 tissue culture flask then cultured for 24 hours at 37° C., 5% CO2 in air. Immediately prior to the addition of the IK2 peptide, culture media was removed by decanting and replaced with fresh media (2.0 mls minus volume addition of IK2 peptide). The treated cells were then cultured for 16 hours.
(§2) Cells were prepared as above for the positive control. Staurosporine (Sigma #S5921) was added to the culture media to a final concentration of 1 μM and the cells exposed to the apoptosis inducer for a maximum of 1-2 hours. For a negative control, vehicle alone (normal saline) was added to cell culture media.
(§3) Apoptotic cells were detected by FACScan analysis utilising Annexin-V-FITC (Sigma kit #A2214) to indicate apoptosis. For the analysis, cells were recovered by trypsinisation as above, and resuspended (˜1×10^6 cells/ml) into 1× binding buffer (Sigma #B9796). 500 μl of cell suspension was then aliquoted into a 10 ml plastic test tube, prior to the addition of 5 μl of Annexin-V FITC and 10 μl of propidium iodide (Sigma #P2667). Cells were incubated at room temperature for 10 minutes in the dark and fluorescence determined by flow cytometer. Living cells are not stained by either Annexin-V-FITC or propidium iodide, while early apoptosis is indicated by staining with Annexin-V-FITC only and necrotic cells are stained by both Annexin-V-FITC and propidium iodide.

HUVEC = test: Annexin-V-FITC FACScan apoptosis analysis; conditions: FIG. 23
Protocol: as §1, §2, §3

skin fibroblasts (SkinF) = test: Annexin-V-FITC FACScan apoptosis analysis; conditions: skin fibroblast (SkinF), FIG. 23
Protocol: as §1, §2, §3

HT29 colon cancer cells [2] = test: Annexin-V-FITC FACScan apoptosis analysis; assay type: cell-based; conditions: peptide 16 hours, staurosporine 1 μM 1-2 hours
Protocol: as §1, §2
Apoptotic cells were detected by FACScan analysis utilising Annexin-V-FITC (Sigma kit #A2214) to indicate apoptosis. For the analysis, cells were recovered by trypsinisation as above, and resuspended (˜1×10^6 cells/ml) into 1× binding buffer (Sigma #B9796). […] Cells were incubated at room temperature for 10 minutes in the dark and fluorescence determined by flow cytometer. […]

[3] = tested on: HT29 colon cancer xenografts; test: In vivo tumour growth of HT29 colon cancer xenografts; parameters: species or system Balb/c athymic mice
Protocol: Balb/c female athymic mice (8 weeks of age obtained from the Animal Resource Centre, Perth, Western Australia) were maintained under pathogen-free conditions and fed standard mouse chow and water ad lib. The mice were divided into groups of ten each. Mice in different groups were marked by ear notching. Briefly, the mice were anaesthetised using isoflurothane by inhalation and their ears marked using a surgical punch. After a recovery period of 48 hours, the mice in each group were injected with 1×10^6 HT29 colon cancer cells in standard DMEM culture medium subcutaneously dorsally behind the right shoulder using a 21-gauge needle. Animal weights and tumour sizes (breadth and length measured with callipers) were recorded weekly. Mice were sacrificed by CO2 asphyxiation and tumour mass excised for measurement.
Mice were injected twice weekly for four weeks commencing 10 days after tumour cell inoculation with DMEM, signal peptide ([…]) (designated “carrier”) (SEQ ID No: 1) or the […] (IK-1) (SEQ ID No: 19) peptide agent, and tumour growth was compared to an untreated control group.
Colon cancer inhibition by peptide […] (IK2P) (SEQ ID No: 18) administered intravenously to colon tumour bearing Balb/c athymic mice as per the protocol described above, is shown in FIG. 20. Colon tumour xenografts were achieved by injection of 1×10^6 HT29 colon cancer cells as above. […]

cancer cell lines = test: Proliferation of cancer cell lines with signal peptide alone; assay type: cell-based; conditions: any cancer cell lines tested, data not shown
HT29 colon cancer cells [4] = tested on: HT29 colon cancer cells
Protocol: (§7) An assay using the substrate methylthiazoletetrazolium (MTT) was utilised to determine the inhibitory affect of peptide agents on cancer cell proliferation. MTT substrate (CAT No. M-2128, Sigma) is cleaved in growing cells to yield a water insoluble salt. After solubilisation of the salt, a coloured product is produced that allows quantitation of the proliferative activity of the cultured cells. To prepare the MTT solution for use in the assay, 100 mg of MTT is mixed with 20 ml of PBS at pH 7.4. The resulting solution is filter sterilised (0.2 μM syringe filter) and stored at 4° C. protected from light until use.
(§8) Cells from the colon cancer cell line HT29 were seeded into wells of a 96-well microlitre plate in Dulbecco's Modified Eagle's Medium (DMEM) supplemented with 10% foetal bovine serum, glutamine, Hepes, and antibiotics at a concentration of 2,000 cells/100 μl and cultured for 24 hours in 5% CO2 in air at 37° C. After the 24 hour incubation period the test agent (solubilised in complete DMEM) is added to test wells to a final media volume of 200 μl and the microtitre plate is incubated for a further 48 to 72 hour period.
(§9) A 20 μl volume of the MTT solution prepared as above is then added to the test wells and the microtitre plate incubated for further 3 hours in 5% CO2 in air at 37° C. The plate is subsequently centrifuged for 5 minutes at 2,000 rpm in a microplate carrier. The supernatant is then removed from the wells using a multichannel pipette leaving MTT crystals in the wells.
(§10) To the wells is then added 150 μl of 6:1 v/v DMSO/glycine solution (0.1 M glycine and 0.1 M NaCl adjusted to pH 10.5 using NaOH) and the MTT crystals are dissolved by gently vortexing the microtitre plate. Absorbance is read at 550 nm using a microtitre plate reader.

HT29 colon cancer cells [5] = test: Cell proliferation assay using MTT; conditions: for inhibition of proliferation (in words): relative to untreated control cells
Protocol: as §7, §8, §9, §10

cytoplasmic domain of β6 = molecular target: T1, cytoplasmic domain of β6 (Homo sapiens, UniProt P18564); test: ELISA binding of MAP kinase fragments to the cytoplasmic domain of β6; conditions: FIG. 1 and FIG. 4
T1 sequence (P18564 737-788): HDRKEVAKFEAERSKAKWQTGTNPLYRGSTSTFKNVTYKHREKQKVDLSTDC
Protocol: Primary antibody detection for the MAP kinase is then added to the test wells and the ELISA plate is allowed to stand for a further 30 minutes at room temperature before the antibody solution is decanted from the plate and the wells again washed with the wash solution. Optimal dilutions of primary detection antibody are pre-determined for each target MAP kinase. […] The wells are read at 405 nm using a microplate reader (Bio-Rad). […]
The binding of various MAP kinases to the cytoplasmic domain of β6 was tested using the assay described in Example 1.1. […] (SEQ ID No: 26), and the binding interaction detected using the anti-β6 antibody R6G9. […]

ERK2 = test: ELISA assay for detection of MAP kinase binding to biotinylated peptide; conditions: result in words
Protocol: (§4) An assay was developed for detecting the ability of MAP kinases to bind with a peptide agent in solution.
(§5) Briefly, the MAP kinase is added to an eppendorf tube containing a biotinylated test peptide in phosphate buffered saline (PBS) at pH 7.4. The mixture is allowed to stand at room temperature for 10 minutes with occasional mixing by gentle inversion of the tube. The MAP kinase/test peptide mixture is then transferred to a pre-washed (PBS×3×100 μl) 96-well streptavidin coated ELISA microtitre plate and allowed to stand for 60 minutes at room temperature. At the end of the 60 minute period, the MAP kinase/test peptide mixture is tipped from the ELISA plate and the wells washed 3 times with wash solution (PBS+0.05% Tween−20).
(§6) Primary antibody detection for the MAP kinase is then added to the test wells and the ELISA plate is allowed to stand for a further 30 minutes at room temperature before the antibody solution is decanted from the plate and the wells again washed with the wash solution. Optimal dilutions of primary detection antibody are pre-determined for each target MAP kinase. Alkaline-phosphatase or other enzyme conjugated anti-primary species antibody at a dilution of 1:2000 v/v is subsequently added to the wells and the microtitre plate is allowed to stand for another 30 minutes at room temperature, before the washing step is repeated and phosphatase detection reagent is added to the wells and the colour reaction allowed to develop. The wells are read at 405 nm using a microplate reader (Bio-Rad). Controls comprise non-biotinylated peptide and biotinylated peptide alone

ERK1 = molecular target: T2, ERK1 (Homo sapiens, UniProt P27361); test: as above; conditions: FIG. 2
T2 construct: GST (N, cleaved yes); made in house
T2 sequence (P27361 whole entry, species assumed): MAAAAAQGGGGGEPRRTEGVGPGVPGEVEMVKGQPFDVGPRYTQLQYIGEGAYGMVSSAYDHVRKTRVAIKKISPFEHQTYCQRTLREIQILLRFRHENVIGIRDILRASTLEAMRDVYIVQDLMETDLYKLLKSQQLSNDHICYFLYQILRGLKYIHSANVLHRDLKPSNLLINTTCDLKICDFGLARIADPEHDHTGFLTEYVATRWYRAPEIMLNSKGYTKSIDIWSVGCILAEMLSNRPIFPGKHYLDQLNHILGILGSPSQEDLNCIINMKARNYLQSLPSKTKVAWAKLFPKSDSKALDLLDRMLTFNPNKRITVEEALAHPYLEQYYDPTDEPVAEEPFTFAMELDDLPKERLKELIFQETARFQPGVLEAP
Protocol: as §4, §5, §6

Compound: O=c1[nH]cc(F)c(=O)[nH]1 [5-FU, 5-Fluorouracil, reference compound]
- impact on proliferation of normal HUVEC cells (HUVEC cells): toxicity

Compound: CN[C@@H]1C[C@H]2O[C@@](C)([C@@H]1OC)n1c3ccccc3c3c4c(c5c6ccccc6n2c5c31)C(=O)NC4 [staurosporin, Staurosporine, reference compound]
- induction of apoptosis [1]: induced apoptosis
- induction of apoptosis (HUVEC): induced apoptosis
- induction of apoptosis (skin fibroblasts (SkinF)): induced apoptosis
- induction of apoptosis (HT29 colon cancer cells [2]): apoptosis was induced

Compound: AAVALLPAVLLALLA [nfkb, reference compound]
- mouse weight at day 28 ([3]; intra-tumoural injections, day 28 relative to time 0 / control group, FIG. 18B): marked weight loss

Compound: AAVALLPAVLLALLAP [nfkbp, K-FGF signal peptide]
- effect of signal peptide alone on proliferation (cancer cell lines): essentially no effect

Compound: AAVALLPAVLLALLAPRSKAKNPLYR [nfkb10(4)p]
- impact on proliferation of normal HUVEC cells (HUVEC cells): relatively minimal
- inhibition of proliferative response compared to 5-FU (HT29 colon cancer cells [4]): more effective

Compound: AAVALLPAVLLALLARSKAKNPLYR (also: acetate salt) [nfkb10(4)acetate]
- inhibition of proliferation at the highest concentration (HT29 colon cancer cells [5]; HT29, MTT, highest concentration of peptide employed): total inhibition

Compound: AAVALLPAVLLALLARSKAKNPLYR [IK2]
- induction of apoptosis [1]: essentially no apoptosis
- induction of apoptosis (HUVEC): essentially no apoptosis
- induction of apoptosis (skin fibroblasts (SkinF)): essentially no apoptosis

Compound: AAVALLPAVLLALLARSKAKWQTGTNPLYR [IK-1]
- mouse weight at day 28 ([3]; mouse, in vivo): Substantially no difference
- impact on proliferation of normal HUVEC cells (HUVEC cells; HUVEC, MTT): essentially no impact

Compound: AAVALLPAVLLALLARSRARNPLYR [nf-b5-10-4]
- degree of inhibition compared with nf-b5-frag 5 (HT29 colon cancer cells [5]; HT29, MTT, FIG. 14G): greater degree of inhibition
- inhibition of proliferation (in words) (HT29 colon cancer cells [5]; HT29, MTT): inhibited proliferation

Compound: Alkyl(4): stearic acid coupled to the RSKAKNPLYR peptide (also: stearic acid coupled (site not given here))
- inhibition of proliferation (in words) (HT29 colon cancer cells [5]; HT29, MTT): effective

Compound: GRKKRRQRRRPQCG [TAT-G, reference compound]
- toxicity of carrier peptide alone (HT29 colon cancer cells [5]; HT29, FIG. 8 and FIG. 9): some toxicity

Compound: HRDLKPSNLAVNEDCELKILDFGLAR [p38 MAP kinase fragment]
- binding to the cytoplasmic domain of β6 (cytoplasmic domain of β6): bound

Compound: KEKLKNPLFK [β2 (10(4)]
- binding to ERK2 (ERK2): bound by ERK2

Compound: RARAKNPLYK
- binding to ERK2 (ERK2): still bound by ERK2

Compound: RSKAKNPLYR [10(4)]
- binding to ERK2 (ERK2): binds to ERK2
- binding to ERK2 (ERK2; listed as RSKAKNPLYR): still bound by ERK2

Compound: RSKAKWQTGTNPLYR
- binding to ERK1 (ERK1): bind
- binding to ERK2 (ERK2): bind

Compound: RSRARNPLYR
- binding to ERK2 (ERK2): still bound by ERK2

Compound: VTVLALGALAGVGVGRSKAKWQTGTNPLYR [Frag 5B3]
- proliferation of the cells relative to control cells (HT29 colon cancer cells [5]; HT29, MTT, higher concentration of the peptides used, FIG. 5): about 37%
